test system: 15LOX/PEBP1; assay: Potency of 15LOX/PEBP1 inhibitors with anti-ferroptotic effect (Table 1); type: cell-based
Text: Development and testing of new compounds that inhibit 15LOX/PEBP1 complex activity. A combination of computational and experimental studies are used. […] Computer modeling considers specific features of organization of 15LOX/PEBP1 complexes and positioning of AA-PE as well as regio-specific oxygenation of AA-residues at 15th carbon. […] It has been shown that: i) binding interface of 15LOX in 15LOX/PEBP1 complex includes a helix on 15LOX (α2) and kinase binding epitope (D144, H145, R146) on PEBP1 (FIG. 8); and ii) interfacial interactions play a pivotal role in allosterically altering conformational dynamics of 15LOX in complex, and its substrate specificity. Analysis of change in access to catalytic site upon PEBP1 binding, using elastic network models indicates needed sites at 15LOX/PEBP1 binding interface. Dynamics simulations are also performed, for 15LOX alone and 15LOX/PEBP1 complex. An effective inhibitor, NCG-01, with in vivo activity has been indicated. Several other 15LOX/PEBP1 inhibitors with anti-ferroptotic effect (FIG. 9) have been identified. To test the effectiveness of compounds identified from the computational screen, RSL3 and mechanical stretch models with LDH and PI assays as a primary outcome are performed. The compounds that inhibit cell death by at least 50% are then evaluated for their effects on AA-PE and AA oxidation by 15LOX/PEBP1 complex and 15LOX alone, respectively, by LC-MS. Evaluation of the effect of compounds in suppressing AA-PE-OOH formation in cells upon proferroptotic stimuli is also performed.

Compound	Potency
FC(F)(F)c1ccc(-c2cn(-c3ccccc3)c(SCc3ccccc3)n2)cc1 [Compound 4, 2-(benzylthio)-1-phenyl-4-(4-(trifluoromethyl)phenyl)-1H-imidazole]	+ (+ > 1 μM)
FC(F)(F)c1ccc(CSc2nc(-c3ccc(C(F)(F)F)cc3)cn2-c2ccccc2)cc1 [Compound 6, 1-phenyl-2-((4-(trifluoromethyl)benzyl)thio)-4-(4-(trifluoromethyl)phenyl)-1H-imidazole]	+ (+ > 1 μM)
Fc1ccc(-n2cc(-c3ccccc3)nc2SCc2ccc(C(F)(F)F)cc2)cc1 [Compound 11, 1-(4-fluorophenyl)-4-phenyl-2-((4-(trifluoromethyl)benzyl)thio)-1H-imidazole]	+ (+ > 1 μM)
FC(F)(F)c1ccc(CSc2nc(-c3ccccc3)cn2-c2ccc(Cl)cc2)cc1 [Compound 13, 1-(4-chlorophenyl)-4-phenyl-2-((4-(trifluoromethyl)benzyl)thio)-1H-imidazole]	+ (+ > 1 μM)
Fc1ccccc1-n1cc(-c2ccccc2)nc1SCc1ccc(C(F)(F)F)cc1 [Compound 14, 1-(2-fluorophenyl)-4-phenyl-2-((4-(trifluoromethyl)benzyl)thio)-1H-imidazole]	+ (+ > 1 μM)
Cc1ccc(-n2cc(-c3ccccc3)nc2SCc2ccc(C(F)(F)F)cc2)cc1 [Compound 16, 4-phenyl-1-(p-tolyl)-2-((4-(trifluoromethyl)benzyl)thio)-1H-imidazole]	+ (+ > 1 μM)
FC(F)(F)c1ccc(CSc2nc(-c3ccccc3)cn2-c2cccc(Cl)c2)cc1 [Compound 17, 1-(3-chlorophenyl)-4-phenyl-2-((4-(trifluoromethyl)benzyl)thio)-1H-imidazole]	+ (+ > 1 μM)
FC(F)(F)c1ccc(CSc2nc(-c3ccccc3)cn2-c2ccccc2)cc1 [Compound 20, 1,4-diphenyl-2-((4-(trifluoromethyl)benzyl)thio)-1H-imidazole]	+ (+ > 1 μM)
Fc1cc(F)cc(-n2cc(-c3ccccc3)nc2SCc2ccc(C(F)(F)F)cc2)c1 [Compound 21, 1-(3,5-difluorophenyl)-4-phenyl-2-((4-(trifluoromethyl)benzyl)thio)-1H-imidazole]	dead
Cc1cccc(-n2cc(-c3ccccc3)nc2SCc2ccc(C(F)(F)F)cc2)c1 [Compound 22, 4-phenyl-1-(m-tolyl)-2-((4-(trifluoromethyl)benzyl)thio)-1H-imidazole]	+ (+ > 1 μM)
C[S+](=O)([O-])c1cccc(-n2cc(-c3ccccc3)nc2SCc2ccc(C(F)(F)F)cc2)c1 [Compound 23, 1-(3-(methylsulfonyl)phenyl)-4-phenyl-2-((4-(trifluoromethyl)benzyl)thio)-1H-imidazole]	+ (+ > 1 μM)
FC(F)(F)c1ccc(CSc2nc(-c3ccccc3)cn2-c2cccc(Br)c2)cc1 [Compound 24, 1-(3-bromophenyl)-4-phenyl-2-((4-(trifluoromethyl)benzyl)thio)-1H-imidazole]	+ (+ > 1 μM)
FC(F)(F)c1ccc(CSc2nc(-c3ccccc3)cn2-c2cccc(C(F)(F)F)c2)cc1 [Compound 25, 4-phenyl-2-((4-(trifluoromethyl)benzyl)thio)-1-(3-(trifluoromethyl)phenyl)-1H-imidazole]	+ (+ > 1 μM)
Fc1cccc(-n2cc(-c3ccccc3)nc2SCc2ccc(C3(C(F)(F)F)N=N3)cc2)c1 [Compound 26, 1-(3-fluorophenyl)-4-phenyl-2-((4-(3-(trifluoromethyl)-3H-diazirin-3-yl)benzyl)thio)-1H-imidazole]	+ (+ > 1 μM)
Fc1cccc(-n2cc(-c3ccc(Br)cc3)nc2SCc2ccccc2)c1 [Compound 27, 2-(benzylthio)-4-(4-bromophenyl)-1-(3-fluorophenyl)-1H-imidazole]	+ (+ > 1 μM)
FC(F)Oc1cccc(-n2cc(-c3ccccc3)nc2SCc2ccc(C(F)(F)F)cc2)c1 [Compound 28, 1-(3-(difluoromethoxy)phenyl)-4-phenyl-2-((4-(trifluoromethyl)benzyl)thio)-1H-imidazole]	+ (+ > 1 μM)
COc1cccc(-n2cc(-c3ccccc3)nc2SCc2ccc(C(F)(F)F)cc2)c1 [Compound 29, 1-(3-methoxyphenyl)-4-phenyl-2-((4-(trifluoromethyl)benzyl)thio)-1H-imidazole]	+ (+ > 1 μM)
FC(F)(F)Oc1cccc(-n2cc(-c3ccccc3)nc2SCc2ccc(C(F)(F)F)cc2)c1 [Compound 30, 4-phenyl-1-(3-(trifluoromethoxy)phenyl)-2-((4-(trifluoromethyl)benzyl)thio)-1H-imidazole]	+ (+ > 1 μM)
O=C(Nc1nc(-c2ccccc2)cn1-c1cccc(F)c1)c1ccc(C(F)(F)F)cc1 [Compound 31, N-(1-(3-fluorophenyl)-4-phenyl-1H-imidazol-2-yl)-4-(trifluoromethyl)benzamide]	+ (+ > 1 μM)

Compound	Potency
Fc1cccc(-n2cc(-c3ccccc3)nc2NCc2ccc(C(F)(F)F)cc2)c1 [Compound 32, 1-(3-fluorophenyl)-4-phenyl-N-(4-(trifluoromethyl)benzyl)-1H-imidazol-2-amine]	++ (++ = 101-1000 nM)
Cc1ccc(CSc2nc(-c3ccccc3)cn2-c2cccc(F)c2)cc1 [Compound 33, 1-(3-fluorophenyl)-2-((4-methylbenzyl)thio)-4-phenyl-1H-imidazole]	+ (+ > 1 μM)
Fc1cccc(-n2cc(-c3ccccc3)nc2SCc2ccc(Br)cc2)c1 [Compound 34, 2-((4-bromobenzyl)thio)-1-(3-fluorophenyl)-4-phenyl-1H-imidazole]	+ (+ > 1 μM)
Fc1cccc(-n2cc(-c3ccccc3)nc2SCc2cccc(C(F)(F)F)c2)c1 [Compound 35, 1-(3-fluorophenyl)-4-phenyl-2-((3-(trifluoromethyl)benzyl)thio)-1H-imidazole]	+ (+ > 1 μM)
Fc1cccc(-n2cc(-c3ccccc3)nc2SCc2ccc(OC(F)(F)F)cc2)c1 [Compound 36, 1-(3-fluorophenyl)-4-phenyl-2-((4-(trifluoromethoxy)benzyl)thio)-1H-imidazole]	+ (+ > 1 μM)
Fc1cccc(-n2cc(-c3ccccc3)nc2SCc2ccccc2)c1 [Compound 37, 2-(benzylthio)-1-(3-fluorophenyl)-4-phenyl-1H-imidazole]	+ (+ > 1 μM)
CC(Sc1nc(-c2ccccc2)cn1-c1cccc(F)c1)c1ccccc1 (stereo not shown) [Compound 38, 1-(3-fluorophenyl)-4-phenyl-2-((1-phenylethyl)thio)-1H-imidazole]	+ (+ > 1 μM)
Fc1cccc(-n2cc(-c3ccccc3)nc2SCc2cccc(Cl)c2)c1 [Compound 39, 2-((3-chlorobenzyl)thio)-1-(3-fluorophenyl)-4-phenyl-1H-imidazole]	+ (+ > 1 μM)
CS(=O)(=O)c1ccc(CSc2nc(-c3ccccc3)cn2-c2cccc(F)c2)cc1 [Compound 40, 1-(3-fluorophenyl)-2-((4-(methylsulfonyl)benzyl)thio)-4-phenyl-1H-imidazole]	+ (+ > 1 μM)
Fc1cccc(-n2cc(-c3ccccc3)nc2SCc2ccccc2C(F)(F)F)c1 [Compound 41, 1-(3-fluorophenyl)-4-phenyl-2-((2-(trifluoromethyl)benzyl)thio)-1H-imidazole]	+ (+ > 1 μM)
Fc1cccc(-n2cc(-c3ccccc3)nc2SCc2ccc(Cl)cc2)c1 [Compound 42, 2-((4-chlorobenzyl)thio)-1-(3-fluorophenyl)-4-phenyl-1H-imidazole]	+ (+ > 1 μM)
Cc1cccc(CSc2nc(-c3ccccc3)cn2-c2cccc(F)c2)c1 [Compound 43, 1-(3-fluorophenyl)-2-((3-methylbenzyl)thio)-4-phenyl-1H-imidazole]	+ (+ > 1 μM)
NS(=O)(=O)c1ccc(CSc2nc(-c3ccccc3)cn2-c2cccc(F)c2)cc1 [Compound 44, 4-(((1-(3-fluorophenyl)-4-phenyl-1H-imidazol-2-yl)thio)methyl)benzenesulfonamide]	+ (+ > 1 μM)
CC(C)(C)c1ccc(CSc2nc(-c3ccccc3)cn2-c2cccc(F)c2)cc1 [Compound 45, 2-((4-(tert-butyl)benzyl)thio)-1-(3-fluorophenyl)-4-phenyl-1H-imidazole]	+ (+ > 1 μM)
Fc1cccc(-n2cc(-c3ccccc3)nc2SCc2cccc(Br)c2)c1 [Compound 46, 2-((3-bromobenzyl)thio)-1-(3-fluorophenyl)-4-phenyl-1H-imidazole]	+ (+ > 1 μM)
CC(C)c1ccc(CSc2nc(-c3ccccc3)cn2-c2cccc(F)c2)cc1 [Compound 47, 1-(3-fluorophenyl)-2-((4-isopropylbenzyl)thio)-4-phenyl-1H-imidazole]	+ (+ > 1 μM)
Fc1cccc(-n2cc(-c3ccccc3)nc2SCc2ccc(C(F)(F)F)cc2F)c1 [Compound 48, 2-((2-fluoro-4-(trifluoromethyl)benzyl)thio)-1-(3-fluorophenyl)-4-phenyl-1H-imidazole]	+ (+ > 1 μM)
CC(=O)Nc1ccc(CSc2nc(-c3ccccc3)cn2-c2cccc(F)c2)cc1 [Compound 49, N-(4-(((1-(3-fluorophenyl)-4-phenyl-1H-imidazol-2-yl)thio)methyl)phenyl)acetamide]	+ (+ > 1 μM)

Reference: patent US20240002350A1, “PROTEIN AND LIPID THERAPEUTIC TARGETS” (UNIVERSITY OF PITTSBURGH-OF THE COMMONWEALTH SYSTEM OF …, priority 2020, published 2024)
